Assay results as given in patent US7459414B2, “Herbicides” (Syngenta Crop Protection, Inc., priority 2002, dated 2008).

Columns and labels:
Format in all cases: in vivo
Alopecurus (Alo) [1] = experiment: Example B1 pre-emergence herbicidal action (comparison test); design: key: 1=total damage; 9=no action; conditions: 500 g of active ingredient/ha; 3 weeks after application; scale of nine ratings, 1 to 4 = good to very good action
Description: (§1) Monocotyledonous and dicotyledonous weeds are sown in plastics pots in standard soil. Immediately after sowing, the test substances are applied in the form of an aqueous suspension (prepared from a 25% wettable powder (Example F3, b)) or in the form of an emulsion (prepared from a 25% emulsifiable concentrate (Example F1, c)) (500 liters of water/ha). The rate of application is 500 g of active substance/ha. The test plants are then grown in the greenhouse under optimum conditions. The evaluation is carried out 3 weeks after application, using a scale of nine ratings (1=total damage, 9=no action). Ratings of from 1 to 4 (especially from 1 to 3) indicate good to very good herbicidal action. Test plants: Alopecurus (Alo), Avena (Ave), Lolium (Lol), Setaria (Set), Panicum (Pan), Sorghum (Sor), Digitaria (Dig), Echinochloa (Ech) and Brachiaria (Bra).

Avena (Ave) [2] = experiment: as above; design: key: 1=total damage; 9=no action; conditions: 500 g of active ingredient/ha; 3 weeks after application; scale of nine ratings, 1 to 4 = good to very good action
Description: as §1

Brachiaria (Bra) [3] = experiment: as above; design: key: 1=total damage; 9=no action; conditions: 500 g of active ingredient/ha; 3 weeks after application; scale of nine ratings, 1 to 4 = good to very good action
Description: as §1

Echinochloa (Ech) = experiment: as above; design: key: 1=total damage; 9=no action; conditions: 500 g of active ingredient/ha; 3 weeks after application; scale of nine ratings, 1 to 4 = good to very good action
Description: as §1

Lolium (Lol) [4] = experiment: as above; design: key: 1=total damage; 9=no action; conditions: 500 g of active ingredient/ha; 3 weeks after application; scale of nine ratings, 1 to 4 = good to very good action
Description: as §1

Panicum (Pan) [5] = experiment: as above; design: key: 1=total damage; 9=no action; conditions: 500 g of active ingredient/ha; 3 weeks after application; scale of nine ratings, 1 to 4 = good to very good action
Description: as §1

Setaria (Set) [6] = experiment: as above; design: key: 1=total damage; 9=no action; conditions: 500 g of active ingredient/ha; 3 weeks after application; scale of nine ratings, 1 to 4 = good to very good action
Description: as §1

Sorghum (Sor) [7] = experiment: as above; design: key: 1=total damage; 9=no action; conditions: 500 g of active ingredient/ha; 3 weeks after application; scale of nine ratings, 1 to 4 = good to very good action
Description: as §1

Digitaria (Dig) [8] = experiment: as above; conditions: 500 g of active ingredient/ha; 3 weeks after application; scale of nine ratings, 1 to 4 = good to very good action
Description: as §1

Alopecurus (Alo) [9] = experiment: Example B2 post-emergence herbicidal action (comparison test); design: key: 1=total damage; 9=no action; conditions: 250 g of active ingredient/ha; 3- to 6-leaf stage; 3 weeks after application; scale of nine ratings, 1 to 4 = good to very good action
Description: (§2) Monocotyledonous and dicotyledonous weeds are grown in standard soil in plastics pots under greenhouse conditions. The test substances are applied to the test plants at the 3- to 6-leaf stage. […] suspension (prepared from a 25% wettable powder (Example F3, b)) or in the form of an emulsion (prepared from a 25% emulsifiable concentrate (Example F1, c)) (500 liters of water/ha). The evaluation is carried out 3 weeks after application, using a scale of nine ratings (1=total damage, 9=no action). Ratings of from 1 to 4 (especially from 1 to 3) indicate good to very good herbicidal action. Test plants: Alopecurus (Alo), Avena (Ave), Lolium (Lol), Setaria (Set), Panicum (Pan), Sorghum (Sor), Digitaria (Dig), Echinocloa (Ech) and Brachiaria (Bra).

Avena (Ave) [10] = experiment: as above; design: key: 1=total damage; 9=no action; conditions: 250 g of active ingredient/ha; 3- to 6-leaf stage; 3 weeks after application; scale of nine ratings, 1 to 4 = good to very good action
Description: as §2

Brachiaria (Bra) [11] = experiment: as above; design: key: 1=total damage; 9=no action; conditions: 250 g of active ingredient/ha; 3- to 6-leaf stage; 3 weeks after application; scale of nine ratings, 1 to 4 = good to very good action
Description: as §2

Echinocloa (Ech) = experiment: as above; design: key: 1=total damage; 9=no action; conditions: 250 g of active ingredient/ha; 3- to 6-leaf stage; 3 weeks after application; scale of nine ratings, 1 to 4 = good to very good action
Description: as §2

Lolium (Lol) [12] = experiment: as above; design: key: 1=total damage; 9=no action; conditions: 250 g of active ingredient/ha; 3- to 6-leaf stage; 3 weeks after application; scale of nine ratings, 1 to 4 = good to very good action
Description: as §2

Panicum (Pan) [13] = experiment: as above; design: key: 1=total damage; 9=no action; conditions: 250 g of active ingredient/ha; 3- to 6-leaf stage; 3 weeks after application; scale of nine ratings, 1 to 4 = good to very good action
Description: as §2

Setaria (Set) [14] = experiment: as above; design: key: 1=total damage; 9=no action; conditions: 250 g of active ingredient/ha; 3- to 6-leaf stage; 3 weeks after application; scale of nine ratings, 1 to 4 = good to very good action
Description: as §2

Sorghum (Sor) [15] = experiment: as above; design: key: 1=total damage; 9=no action; conditions: 250 g of active ingredient/ha; 3- to 6-leaf stage; 3 weeks after application; scale of nine ratings, 1 to 4 = good to very good action
Description: as §2

Digitaria (Dig) [16] = experiment: as above; conditions: 250 g of active ingredient/ha; 3- to 6-leaf stage; 3 weeks after application; scale of nine ratings, 1 to 4 = good to very good action
Description: as §2

Avena (Ave) [17] = experiment: Example B3 pre-emergence herbicidal action, MERGE oil additive 0.7% (Table B3); design: key: 1=total damage; 9=no action; conditions: 500 g of active substance/ha; MERGE oil additive 0.7% by weight of the spray mixture; evaluation 3 weeks after application; scale of nine ratings
Description: (§3) Monocotyledonous and dicotyledonous weeds are sown in standard soil in plastics pots. Immediately after sowing, the test substances are applied in the form of an aqueous suspension (prepared from a 25% wettable powder (Example F3, b)) or in the form of an emulsion (prepared from a 25% emulsifiable concentrate (Example F1, c)) (500 liters of water/ha). The rate of application is 500 g of active substance/ha. The test plants are then grown in the greenhouse under optimum conditions. The evaluation is carried out 3 weeks after application, sing a scale of nine ratings (1=total damage, 9=no action). Ratings of from 1 to 4 (especially from 1 to 3) indicate good to very good herbicidal action. Test plants: Avena (Ave), Lolium (Lol), Setaria (Set).

Lolium (Lol) [18] = experiment: as above; design: key: 1=total damage; 9=no action; conditions: 500 g of active substance/ha; MERGE oil additive 0.7% by weight of the spray mixture; evaluation 3 weeks after application; scale of nine ratings
Description: as §3

Setaria (Set) [19] = experiment: as above; design: key: 1=total damage; 9=no action; conditions: 500 g of active substance/ha; MERGE oil additive 0.7% by weight of the spray mixture; evaluation 3 weeks after application; scale of nine ratings
Description: as §3

Avena (Ave) [20] = experiment: Example B4 post-emergence herbicidal action, MERGE oil additive 0.7% (Table B4); design: key: 1=total damage; 9=no action; conditions: 500 g of active substance per hectare; applied at 3- to 6-leaf stage; MERGE oil additive 0.7% by weight of the spray mixture; evaluation 3 weeks after application; scale of nine ratings
Description: (§4) Monocotyledonous and dicotyledonous weeds are grown in standard soil in plastics pots under greenhouse conditions. The test substances are applied to the test plants at the 3- to 6-leaf stage. The test substances are applied at a rate of application of 500 g of active substance per hectare in the form of an aqueous suspension (prepared from a 25% wettable powder (Example F3, b)) or in the form of an emulsion (prepared from a 25% emulsifiable concentrate (Example F1, c)) (500 liters of water/ha). The evaluation is carried out 3 weeks after application, using a scale of nine ratings (1=total damage, 9=no action). Ratings of from 1 to 4 (especially from 1 to 3) indicate good to very good herbicidal action. Herbicidal Action After the Emergence of the Plants (Post-emergence Action) of Compounds of the Present Invention (for Description See Example B2) Test plants: Avena (Ave), Lolium (Lol), Setaria (Set).

Lolium (Lol) [21] = experiment: as above; design: key: 1=total damage; 9=no action; conditions: 500 g of active substance per hectare; applied at 3- to 6-leaf stage; MERGE oil additive 0.7% by weight of the spray mixture; evaluation 3 weeks after application; scale of nine ratings
Description: as §4

Setaria (Set) [22] = experiment: as above; design: key: 1=total damage; 9=no action; conditions: 500 g of active substance per hectare; applied at 3- to 6-leaf stage; MERGE oil additive 0.7% by weight of the spray mixture; evaluation 3 weeks after application; scale of nine ratings
Description: as §4

CCc1cc(C)cc(CC)c1-c1c(OC(=O)C(C)(C)C)n2n(c1=O)CCCC2 [1.02]
1: Pre-emergence action rating, Alo (Alopecurus (Alo) [1]) | Pre-emergence action, rating, Ave (Avena (Ave) [2]) | Pre-emergence action rating, Bra (Brachiaria (Bra) [3]) | Pre-emergence action rating, Ech (Echinochloa (Ech)) | Pre-emergence action, rating, Lol (Lolium (Lol) [4]) | Pre-emergence action rating, Pan (Panicum (Pan) [5]) | Pre-emergence action, rating, Set (Setaria (Set) [6]) | Pre-emergence action rating, Sor (Sorghum (Sor) [7]) | Post-emergence action rating, Alo (Alopecurus (Alo) [9]) | Post-emergence action, rating, Ave (Avena (Ave) [10]) | Post-emergence action rating, Bra (Brachiaria (Bra) [11]) | Post-emergence action rating, Ech (Echinocloa (Ech)) | Post-emergence action, rating, Lol (Lolium (Lol) [12]) | Post-emergence action rating, Pan (Panicum (Pan) [13]) | Post-emergence action, rating, Set (Setaria (Set) [14]) | Post-emergence action rating, Sor (Sorghum (Sor) [15]) | Pre-emergence action, rating, Ave (Avena (Ave) [17]) | Pre-emergence action, rating, Lol (Lolium (Lol) [18]) | Pre-emergence action, rating, Set (Setaria (Set) [19]) | Post-emergence action, rating, Ave (Avena (Ave) [20]) | Post-emergence action, rating, Lol (Lolium (Lol) [21]) | Post-emergence action, rating, Set (Setaria (Set) [22])
4: Pre-emergence action rating, Dig (Digitaria (Dig) [8])
2: Post-emergence action rating, Dig (Digitaria (Dig) [16])

CCc1cc(C)cc(CC)c1-c1c(OC(=O)C(C)(C)C)n2n(c1=O)CC(OC)C(OC)C2 (stereo not drawn) [1.08]
1: Post-emergence action, rating, Ave (Avena (Ave) [20]) | Post-emergence action, rating, Lol (Lolium (Lol) [21]) | Post-emergence action, rating, Set (Setaria (Set) [22])

CCc1cc(C)cc(CC)c1-c1c(O)n2n(c1=O)CC(O)C(Cl)C2 (stereo not drawn) [1.10]
1: Post-emergence action, rating, Ave (Avena (Ave) [20]) | Post-emergence action, rating, Lol (Lolium (Lol) [21]) | Post-emergence action, rating, Set (Setaria (Set) [22])

CCc1cc(C)cc(CC)c1-c1c(O)n2n(c1=O)CC(OCC(C)C)CC2 (stereo not drawn) [1.11]
1: Post-emergence action, rating, Ave (Avena (Ave) [20]) | Post-emergence action, rating, Lol (Lolium (Lol) [21]) | Post-emergence action, rating, Set (Setaria (Set) [22])

CCc1cc(C)cc(CC)c1-c1c(O)n2n(c1=O)CC(OC(C)C)CC2 (stereo not drawn) [1.14]
2: Post-emergence action, rating, Lol (Lolium (Lol) [21]) | Post-emergence action, rating, Set (Setaria (Set) [22])
1: Post-emergence action, rating, Ave (Avena (Ave) [20])

CCc1cc(C)cc(CC)c1-c1c(O)n2n(c1=O)CC(OCCOC)CC2 (stereo not drawn) [1.15]
1: Post-emergence action, rating, Ave (Avena (Ave) [20]) | Post-emergence action, rating, Set (Setaria (Set) [22])
2: Post-emergence action, rating, Lol (Lolium (Lol) [21])

CCc1cc(C)cc(CC)c1-c1c(O)n2n(c1=O)CC(OCCO)CC2 (stereo not drawn) [1.17]
2: Post-emergence action, rating, Set (Setaria (Set) [22])
1: Post-emergence action, rating, Ave (Avena (Ave) [20]) | Post-emergence action, rating, Lol (Lolium (Lol) [21])

CCc1cc(C)cc(CC)c1-c1c(O)n2n(c1=O)CC(OCC(=O)O)CC2 (stereo not drawn) [1.19]
1: Post-emergence action, rating, Ave (Avena (Ave) [20]) | Post-emergence action, rating, Lol (Lolium (Lol) [21]) | Post-emergence action, rating, Set (Setaria (Set) [22])
